Active and inactive are the calls of the source. The rule behind the calls is not given here.

This data set has as its system dog and primate chronic carcinogenicity bioassays, TD50. The data set can be described thus: DSSTox (CPDBAS) Carcinogenic Potency Database Summary Dog & Primates Bioassay Results. From the text:
The Carcinogenic Potency Database (CPDB) is a unique and widely used international resource of the results of over 6500 chronic, long-term animal cancer tests on over 1500 chemical substances. The CPDB provides easy access to the bioassay literature, with qualitative and quantitative analyses of both positive and negative experiments that have been published over the past 50 years in the general literature and by the National Cancer Institute/National Toxicology Program. The CPDB standardizes the diverse literature of cancer bioassays that vary widely in protocol, histopathological examination and nomenclature, and in the published author's choices of what information to provide in their papers. Results are reported in the CPDB for tests in rats, mice, hamsters, dogs, and nonhuman primates, and are based on the most positive result among all experiments for each sex-species. The DSSTox CPDBAS (all species) file incorporates data from the CPDB Summary Tables for the full list of over 1500 chemical substances tested in at least one species. Summary bioassay results for Dogs and Non-Human Primates (TD50, tumor sites) are provided in the CPDB Summary Tables and the DSSTox CPDBAS file for more than 30 chemical substances.
TD50 is a standardized quantitative measure of carcinogenic potency (analogous to an LD50) and is reported in the CPDB Summary Table for each species. Comments pertaining to the Dog or Primates (Cynomolgus, Rhesus, Bush Baby, Tree Shrew) TD50 (corresponding to footnote indices in the original CPDB Summary Table) are provided in the TD50_Dog_Primates_Note field. […] Target sites are reported for each species with a positive result in the CPDB on the basis of a positive author's opinion for the particular site and using all results from both the general literature and NCI/NTP bioassays. If a chemical has two or more target sites listed, the results may be from different experiments, and a single site may be a target organ in more than one experiment, as well. Blank entry in TargetSites field indicates no results reported.

As for `Nc1ccc(-c2ccc(N)c(Cl)c2)cc1Cl`, the result was active.
The same measure, in the same setting: the result for `Cc1cc(C)c(S(=O)(=O)O)cc1N=Nc1cc(S(=O)(=O)O)c2ccccc2c1O` reads “inactive”.
`ClC(Cl)Cl`: the result was inactive.
Same read-out and setting: to `CN(C)N=O` belongs “inactive; no positive results”.
As for `CCCN(CCC)N=O`, the Potency is 0.0121 mg/kg/day.
On to `C#C[C@]1(OC(C)=O)CC[C@H]2[C@@H]3CCC4=CC(=O)CC[C@@H]4[C@H]3CC[C@@]21C`, for which the outcome is “inactive; no positive results”.
With `O=P1(N(CCCl)CCCl)NCCCO1` (stereo unspecified), the outcome is “inactive; no positive results”.
As to `N[C@@H](Cc1ccc(N(CCCl)CCCl)cc1)C(=O)O`, the outcome was “active; no positive results”.
Consider `C/[N+]([O-])=N/CO[C@@H]1O[C@H](CO)[C@@H](O)[C@H](O)[C@H]1O`, for which the Potency was 0.0657 mg/kg/day.
Take `Cn1cnc([N+](=O)[O-])c1Sc1ncnc2nc[nH]c12`: the outcome is “inactive; no positive results”.
Take `CCOC(N)=O`: the Potency is 65.2 mg/kg/day.
In the case of `Nc1ccc(Cc2ccc(N)c(Cl)c2)cc1Cl`, the result was active.
With `COc1cc2c(c3oc(=O)c4c(c13)CCC4=O)C1C=COC1O2` (stereo unspecified), the Potency was 0.0082 mg/kg/day.
As to `O=S(=O)(O)NC1CCCCC1`, the outcome is “inactive; no positive results”.
The same measure, in the same setting: to `O=C1NS(=O)(=O)c2ccccc21` belongs “inactive; no positive results”; to `Cc1ccc2cc3c(ccc4ccccc43)c3c2c1CC3`, “inactive; no positive results”.
In the case of `Clc1ccc(C(c2ccc(Cl)cc2)C(Cl)(Cl)Cl)cc1`, the outcome was “inactive; no positive results”.
On the same count and under the same terms, to `CN(C)c1ccc(N=Nc2ccccc2)cc1` belongs “inactive; no positive results”; to `Cc1cccc(N=Nc2ccc(N(C)C)cc2)c1`, “inactive; no positive results”.
`CNNCc1ccc(C(=O)NC(C)C)cc1`: the Potency is 4.21 mg/kg/day.
Turning to `CC(=O)Nc1ccc2c(c1)Cc1ccccc1-2`, the outcome was “inactive; no positive results”.
For the molecule `COc1cccc2c1C(=O)c1c(O)c3c(c(O)c1C2=O)C[C@@](O)(C(=O)CO)C[C@@H]3O[C@H]1C[C@H](N)[C@H](O)[C@H](C)O1`, the outcome was “inactive; no positive results”.
The same measure, in the same setting: the result for `Cn1c(N)nc2c3cccnc3ccc21` reads “active”.
In the case of `CN(N=O)C(N)=O`, the Potency is 7.18 mg/kg/day.
Still for that read-out and setting: the result for `CCN(CC)N=O` reads 0.0536 mg/kg/day.
Consider `CC(=O)Nc1ccc2c(c1)Cc1cc(NC(C)=O)ccc1-2`, for which the outcome was “inactive; no positive results”.
On to `O=NN1CCCCC1`, for which the Potency was 2.76 mg/kg/day.
With `O=[As](O)(O)O`, the outcome was inactive.
Still for that read-out and setting: to `C#C[C@@]1(O)CC[C@H]2[C@@H]3CCC4=CCCC[C@@H]4[C@H]3CC[C@@]21C` belongs “active”.
Regarding `Nc1ccc2ccccc2c1`, the Potency was 5.74 mg/kg/day.
With `COc1cc2c(c3oc4cccc(O)c4c(=O)c13)C1C=COC1O2` (stereo unspecified), the outcome was active.
